By IC50 is commonly meant the concentration needed to halve the response being measured.

The experiment concerns the target T1, LRRK2 wild type (recombinant human, catalytic domain amino acids 970-2527, GST-tagged) (Homo sapiens, UniProt Q5S007).
T1 construct: The wild type used was recombinant human, catalytic domain (amino acids 970-2527) GST-tagged, expressed in insect cells; GST; purchased Invitrogen Corporation PV4873; host or cells: insect cells
Kind of experiment: LRRK2 wild type protein kinase assay ([γ-33P] ATP, peptide substrate […]), IC50. The experiment is classed as biochemical. The conditions noted are these: LRRK2 (variant not given); read-out: Potency score, LRRK2 IC50. The source says:
All LRRK2 protein kinases were of human origin and were sourced from Invitrogen Corporation (Carlsbad, Calif. 92008 USA) unless otherwise indicated. The active mutant used was recombinant human, catalytic domain (amino acids 970-2527) containing a G2019S mutation, GST-tagged, expressed in insect cells (Invitrogen Cat#PV4881). The wild type used was recombinant human, catalytic domain (amino acids 970-2527) GST-tagged, expressed in insect cells (Invitrogen Cat#PV4873). The kinase dead mutant used was recombinant human, catalytic domain (amino acids 970-2527) containing a D1994A mutation, GST-tagged, expressed in insect cells (Invitrogen Cat#PM4041AE). No special measures were taken to activate any of the kinases.
All assays were carried out at room temperature (˜21° C.) and were linear with respect to time and enzyme concentration under the conditions used. Assays were performed for 180 min in a 96 well format. LRRK2 was present at a concentration of approximately 5 nM. The enzyme was diluted and assayed in 50 mM Tris-HCl pH7.5, 0.1 mM EGTA, 1 mM DTT and 10 mM MgCl2. The concentration of magnesium chloride in the assay was 10 mM. The [γ-33P] […] The peptide substrate in the assay was […] at 100 μM.
The assays were initiated with Mg/ATP and stopped by the addition of 25 μl/well 50% orthophosphoric acid. Reactions were harvested onto Whatman P81 Unifilter Plates (Fisher Scientific. Loughborough, LE115RG, UK. Cat# FDU-105-020U) using a Tomtec harvester. (Tomtec Hamden, Conn. 06514. USA) Plates were counted using a Perkin Elmer Top Count NX7. (Perkin Elmer, Shelton Conn. 06484-4794 USA)
IC50 values of inhibitors were determined after carrying out assays at 10 different concentrations of each compound in duplicate.

A value given as a limit tells only on which side of the number the result lay.

T1 sequence (Q5S007 970-2527): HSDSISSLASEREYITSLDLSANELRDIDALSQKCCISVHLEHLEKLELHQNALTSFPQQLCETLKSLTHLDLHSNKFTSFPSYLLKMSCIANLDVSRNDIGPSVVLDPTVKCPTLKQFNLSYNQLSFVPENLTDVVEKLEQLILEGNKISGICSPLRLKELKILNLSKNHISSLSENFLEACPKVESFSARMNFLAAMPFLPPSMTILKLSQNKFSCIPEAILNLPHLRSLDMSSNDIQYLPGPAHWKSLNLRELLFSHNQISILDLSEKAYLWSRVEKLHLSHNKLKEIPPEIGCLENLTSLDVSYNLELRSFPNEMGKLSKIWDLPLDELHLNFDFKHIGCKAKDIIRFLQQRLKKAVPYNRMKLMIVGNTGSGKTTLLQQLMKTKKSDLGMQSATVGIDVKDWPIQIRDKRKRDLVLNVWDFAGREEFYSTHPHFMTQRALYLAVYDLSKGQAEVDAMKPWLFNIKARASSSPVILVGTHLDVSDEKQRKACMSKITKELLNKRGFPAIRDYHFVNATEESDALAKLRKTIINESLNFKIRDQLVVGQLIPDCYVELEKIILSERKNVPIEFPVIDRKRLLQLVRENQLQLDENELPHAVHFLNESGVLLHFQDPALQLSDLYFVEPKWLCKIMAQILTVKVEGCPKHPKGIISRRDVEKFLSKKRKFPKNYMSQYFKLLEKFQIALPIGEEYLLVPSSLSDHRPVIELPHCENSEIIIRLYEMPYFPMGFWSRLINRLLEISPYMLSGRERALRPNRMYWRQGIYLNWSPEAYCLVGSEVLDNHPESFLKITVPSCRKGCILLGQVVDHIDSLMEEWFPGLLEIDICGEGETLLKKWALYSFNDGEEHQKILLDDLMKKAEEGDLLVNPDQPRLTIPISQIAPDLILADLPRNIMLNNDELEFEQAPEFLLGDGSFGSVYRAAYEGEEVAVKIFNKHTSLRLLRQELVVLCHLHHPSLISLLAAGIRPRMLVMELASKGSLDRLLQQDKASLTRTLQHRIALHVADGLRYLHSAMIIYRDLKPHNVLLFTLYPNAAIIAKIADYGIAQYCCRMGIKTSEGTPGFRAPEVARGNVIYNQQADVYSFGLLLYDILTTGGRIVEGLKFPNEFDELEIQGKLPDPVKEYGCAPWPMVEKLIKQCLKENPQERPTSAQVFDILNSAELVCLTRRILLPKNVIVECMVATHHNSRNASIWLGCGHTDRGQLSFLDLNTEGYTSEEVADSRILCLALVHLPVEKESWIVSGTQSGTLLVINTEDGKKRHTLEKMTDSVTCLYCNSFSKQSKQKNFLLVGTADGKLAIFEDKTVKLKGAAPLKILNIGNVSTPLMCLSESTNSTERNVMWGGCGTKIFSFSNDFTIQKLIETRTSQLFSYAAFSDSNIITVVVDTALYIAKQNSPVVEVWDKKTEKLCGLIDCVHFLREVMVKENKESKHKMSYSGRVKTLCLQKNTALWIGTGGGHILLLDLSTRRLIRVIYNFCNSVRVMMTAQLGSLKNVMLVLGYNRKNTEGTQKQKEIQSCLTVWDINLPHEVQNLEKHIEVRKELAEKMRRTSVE

`Cc1n[nH]c2ccnc(Nc3cncc(-c4ccc(C#N)cc4)c3)c12` [Example 60, 4-[5-(3-Methyl-1H-pyrazolo[4,3-c]pyridin-4-ylamino)-pyridin-3-yl]-benzonitrile]: the IC50 lay in the range of 100 to 1000 nM. In the case of `CN(CCc1ccccc1)C(=O)CCc1n[nH]c2ccnc(NC3CCCCC3)c12` [Example 189, 3-(4-Cyclohexylamino-1H-pyrazolo[4,3-c]pyridin-3-yl)-N-methyl-N-phenethyl-propionamide] it was 1000 to 10000 nM; in that of `Fc1cc(C(F)(F)F)ccc1-c1n[nH]c2ccnc(NC3CCCCC3)c12` [Example 166, Cyclohexyl-[3-(2-fluoro-4-trifluoromethyl-phenyl)-1H-pyrazolo[4,3-c]pyridin-4-yl]-amine], 1000 to 10000 nM.

With `Cc1n[nH]c2ccnc(Cc3ccccc3)c12` [Example 125, 4-Benzyl-3-methyl-1H-pyrazolo[4,3-c]pyridine], the IC50 is 1000 to 10000 nM. The value for `Cc1n[nH]c2ccnc(NCCCN3CCCC3=O)c12` [Example 324, 1-[3-(3-Methyl-1H-pyrazolo[4,3-c]pyridin-4-ylamino)-propyl]-pyrrolidin-2-one] was 1000 to 10000 nM; that for `Clc1ccccc1-c1n[nH]c2ccnc(NC3CCCCC3)c12` [Example 143, [3-(2-Chloro-phenyl)-1H-pyrazolo[4,3-c]pyridin-4-yl]-cyclohexyl-amine] was 100 to 1000 nM; that for `Cc1n[nH]c2ccnc(N[C@@H](C)C(C)C)c12` [Example 40, ((S)-1,2-Dimethyl-propyl)-(3-methyl-1H-pyrazolo[4,3-c]pyridin-4-yl)-amine] was 100 to 1000 nM.

In the case of `Cc1n[nH]c2ccnc(-c3nccs3)c12` [Example 130, 3-Methyl-4-thiazol-2-yl-1H-pyrazolo[4,3-c]pyridine], the IC50 fell in the range of 100 to 1000 nM.

`Cc1n[nH]c2ccnc(N[C@H]3CC[C@H](C)CC3)c12` [Example 34, Trans-(4-Methyl-cyclohexyl)-(3-methyl-1H-pyrazolo[4,3-c]pyridin-4-yl)-amine]: the IC50 was in the range of 100 to 1000 nM. In the case of `CC(C)n1cc(-c2n[nH]c3ccnc(NC4CCCCC4)c23)cn1` [Example 235, Cyclohexyl-[3-(1-isopropyl-1H-pyrazol-4-yl)-1H-pyrazolo[4,3-c]pyridin-4-yl]-amine] it was below 100 nM.

With `Cc1n[nH]c2ccnc(Nc3ccccn3)c12` [Example 94, (3-Methyl-1H-pyrazolo[4,3-c]pyridin-4-yl)-pyridin-2-yl-amine], the IC50 lay within 1000 to 10000 nM. As to `Cc1n[nH]c2ccnc(O[C@H]3C[C@@H]4CC[C@H]3C4)c12` (racemic) [Example 291], the IC50 was 100 to 1000 nM. The value for `Cc1n[nH]c2ccnc(-c3cnccn3)c12` [Example 131, 3-Methyl-4-pyrazin-2-yl-1H-pyrazolo[4,3-cc]pyridine] was 1000 to 10000 nM; that for `Cc1n[nH]c2ccnc(Nc3ccc(C(=O)N4CCCC4)cc3)c12` [Example 113, [4-(3-Methyl-1H-pyrazolo[4,3-c]pyridin-4-ylamino)-phenyl]-pyrrolidin-1-yl-methanone] was 100 to 1000 nM. In the case of `Cc1n[nH]c2ccnc(Nc3ccc(C(F)(F)F)cc3)c12` [Example 346, (3-Methyl-1H-pyrazolo[4,3-c]pyridin-4-yl)-(4-trifluoromethyl-phenyl)-amine] it was 100 to 1000 nM; in that of `CCCNc1nccc2[nH]nc(C)c12` [Example 16, (3-Methyl-1H-pyrazolo[4,3-c]pyridin-4-yl)-propyl-amine], 100 to 1000 nM; in that of `Cc1n[nH]c2ccnc(N3CCN(c4cccc(Cl)c4)CC3)c12` [Example 7, 4-[4-(3-Chloro-phenyl)-piperazin-1-yl]-3-methyl-1H-pyrazolo[4,3-c]pyridine], 1000 to 10000 nM. The value for `Cc1n[nH]c2ccnc(Nc3ccn(C)n3)c12` [Example 61, (3-Methyl-1H-pyrazolo[4,3-c]pyridin-4-yl)-(1-methyl-1H-pyrazol-3-yl)-amine] was 100 to 1000 nM. With `c1ccc([C@@H]2CCCN(CCCc3n[nH]c4ccnc(NC5CCCCC5)c34)C2)cc1` [Example 215, Cyclohexyl-{3-[3-((S)-3-phenyl-piperidin-1-yl)-Propyl]-1H-pyrazolo[4,3-c]pyridin-4-yl}-amine], the IC50 lay within 1000 to 10000 nM.

For the molecule `CCOc1ccccc1Nc1nccc2[nH]nc(C)c12` [Example 68, (2-Ethoxy-phenyl)-(3-methyl-1H-pyrazolo[4,3-c]pyridin-4-yl)-amine], the IC50 was in the range of 100 to 1000 nM.

With `CN(C)C(=O)CCc1n[nH]c2ccnc(NC3CCCCC3)c12` [Example 212, 3-(4-Cyclohexylamino-1H-pyrazolo[4,3-c]pyridin-3-yl)-N,N-dimethyl-propionamide], the IC50 is 100 to 1000 nM. In the case of `CCC[C@H](C)Oc1nccc2[nH]nc(C)c12` [Example 285, 3-Methyl-4-((S)-1-methyl-butoxy)-1H-pyrazolo[4,3-c]pyridine] it was 100 to 1000 nM. In the case of `N#Cc1ccc(-c2n[nH]c3ccnc(NC4CCCCC4)c23)cc1` [Example 158] it was 1000 to 10000 nM; in that of `Cc1n[nH]c2ccnc(NC(C)CC(C)C)c12` (stereo not drawn) [Example 45, (1,3-Dimethyl-butyl)-(3-methyl-1H-pyrazolo[4,3-c]pyridin-4-yl)-amine], 1000 to 10000 nM; in that of `Cc1n[nH]c2ccnc(NCC3CCCO3)c12` (stereo not drawn) [Example 304, (3-Methyl-1H-pyrazolo[4,3-c]pyridin-4-yl)-(tetrahydro-furan-2-ylmethyl)-amine], 1000 to 10000 nM.

Consider `O=C(CCc1n[nH]c2ccnc(NC3CCCCC3)c12)N1CCC(c2ccncc2)C1` (stereo not drawn) [Example 209, 3-(4-Cyclohexylamino-1H-pyrazolo[4,3-c]pyridin-3-yl)-1-(3-pyridin-4-yl-pyrrolidin-1-yl)-propan-1-one], for which the IC50 was below 100 nM. For `Cc1n[nH]c2ccnc(Nc3cccc(N(C)C)c3)c12` [Example 92, N,N-Dimethyl-N′-(3-methyl-1H-pyrazolo[4,3-c]pyridin-4-yl)-benzene-1,3-diamine], the IC50 lay within 1000 to 10000 nM.

For `O=C(CCc1n[nH]c2ccnc(NC3CCCCC3)c12)N1CCOCC1` [Example 175, 3-(4-Cyclohexylamino-1H-pyrazolo[4,3-c]pyridin-3-yl)-1-morpholin-4-yl-propan-1-one], the half-inhibitory concentration (IC50) lay within 100 to 1000 nM.

`O=C(Nc1ccc2nccnc2c1)c1ccc(CCc2n[nH]c3ccnc(NC4CCCCC4)c23)cc1` [Example 254, 4-[2-(4-Cyclohexylamino-1H-pyrazolo[4,3-c]pyridin-3-yl)-ethyl]-N-quinoxalin-6-yl-benzamide]: the IC50 was below 100 nM.

On to `Cc1n[nH]c2ccnc(Nc3cccc(OC(C)C)c3)c12` [Example 341, (3-Isopropoxy-phenyl)-(3-methyl-1H-pyrazolo[4,3-c]pyridin-4-yl)-amine], for which the IC50 fell in the range of 1000 to 10000 nM. The value for `CS(=O)(=O)N1CCC(CCc2n[nH]c3ccnc(NC4CCCCC4)c23)CC1` [Example 220, Cyclohexyl-{3-[2-(1-methanesulfonyl-piperidin-4-yl)-ethyl]-1H-pyrazolo[4,3-c]pyridin-4-yl}-amine] was 100 to 1000 nM. `Cc1ccc(-c2n[nH]c3ccnc(NC4CCCCC4)c23)cc1` [Example 148, Cyclohexyl-(3-p-tolyl-1H-pyrazolo[4,3-c]pyridin-4-yl)-amine]: the IC50 is 100 to 1000 nM. As to `Cc1n[nH]c2ccnc(NCC(C)C)c12` [Example 24, Isobutyl-(3-methyl-1H-pyrazolo[4,3-c]pyridin-4-yl)-amine], the IC50 is 100 to 1000 nM.

With `O=C(CCc1n[nH]c2ccnc(NC3CCCCC3)c12)NC1CC1` [Example 171, 3-(4-Cyclohexylamino-1H-pyrazolo[4,3-c]pyridin-3-yl)-N-cyclopropyl-propionamide], the IC50 fell in the range of 1000 to 10000 nM. In the case of `O=C(Nc1cccc(CCc2n[nH]c3ccnc(NC4CCCCC4)c23)c1)c1cocn1` [Example 228, Oxazole-4-carboxylic acid {3-[2-(4-cyclohexylamino-1H-pyrazolo[4,3-c]pyridin-3-yl)-ethyl]-phenyl}-amide] it was below 100 nM; in that of `O=C(Nc1ccc(CCc2n[nH]c3ccnc(NC4CCCCC4)c23)cc1)c1cccc(F)c1` [Example 275, N-{4-[2-(4-Cyclohexylamino-1H-pyrazolo[4,3-c]pyridin-3-yl)-ethyl]-phenyl}-3-fluoro-benzamide], below 100 nM. The value for `Cc1n[nH]c2ccnc(NC3CCCC3)c12` [Example 21, Cyclopentyl-(3-methyl-1H-pyrazolo[4,3-c]pyridin-4-yl)-amine] was 100 to 1000 nM; that for `Cc1n[nH]c2ccnc(NCc3ccc(Cl)cc3)c12` [Example 1, (4-Chloro-benzyl)-(3-methyl-1H-pyrazolo[4,3-c]pyridin-4-yl)-amine] was 1000 to 10000 nM. In the case of `Cc1n[nH]c2ccnc(Nc3ccc(C(=O)N4CCC(F)(F)CC4)cc3)c12` [Example 110, (4,4-Difluoro-piperidin-1-yl)-[4-(3-methyl-1H-pyrazolo[4,3-c]pyridin-4-ylamino)-phenyl]-methanone] it was 100 to 1000 nM.

For the origin of these results see patent US20170320870A1 (Medical Research Council Technology, priority 2009, published 2017).
